# From paper PMC6521598, “Identification of GLPG/ABBV-2737, a Novel Class of Corrector, Which Exerts Functional Synergy With Other CFTR Modulators” (Frontiers in Pharmacology, 2019)
# Tests used:
# [1] = set-up: method as in Brearley et al., 2017; conditions: healthy volunteers; ref Brearley et al., 2017; cited from earlier work
# [2] = target: T1, wild type CFTR (Homo sapiens, UniProt P13569); test: YFP halide assay, HEK293 cells transfected with wild type CFTR; assay type: cell-based; set-up: expressed in transfected cells; host or cells: HEK293
# Experimental: HEK293 cells were transfected with 10–80 ng of plasmid encoding F508del, E92K, P67L, V232D, F508del/G550E, F508del/I539T or wild type CFTR and 20 ng of plasmid encoding YFP (H148Q/I152L/F47L) using jetPEI (Polyplus transfection). Directly after transfection, cells were seeded in black 96-well plates coated with poly-D-lysine at a density of 70,000 cells per well. The next day, cells were treated with corrector(s) for 24 h. After this incubation period, cells were washed twice with DPBS with Ca^2+ and Mg^2+. […] YFP fluorescence was measured using an EnVision plate reader (PerkinElmer). […] The capacity of potentiators to increase CFTR channel function was expressed as 1-(fluorescence 7 s after NaI addition (F)/fluorescence before NaI addition (F0)). […]
# Due to the lack of any forskolin activated current upon correction of F508del carrying cells with GLPG2737, we wondered whether GLPG2737 would have an effect on wild type CFTR activity. […] Similar to the observations in the 24 h incubation experiment, a decrease in wild type channel activity was measured with increasing amounts of GLPG2737 (Figure 6B). Since the YFP halide assay was performed using an overexpressing cell system that might not be physiologically relevant, GLPG2737 was also evaluated on normal HBE cells.
# [3] = target: T1, wild type CFTR; test: CFTR activity in normal HBE cells (NHBE); assay type: cell-based; set-up: University of North Carolina; host or cells: primary normal human bronchial epithelial cells; conditions: forskolin 0.1 or 0.3 μM, potentiator GLPG2451 10 μM added afterwards
# Experimental: Bronchial epithelial cells isolated from transplanted lungs from normal (wt CFTR) or CF patients homozygous for the F508del CFTR mutation, were obtained from McGill University (Montreal, QC, Canada) and University of North Carolina (Chapel Hill, NC, United States). Cells were isolated from lungs obtained from donors undergoing a planned transplantation. These primary cells were cultured directly on type IV collagen-coated polycarbonate Transwell supports with a diameter of 6.5 mm and pore size of 0.4 μm (Costar, #3397) for 18–25 days in air liquid (ali) interface essentially as previously described ([Fulcher et al., 2005]) for TECC. A similar cell culture protocol was used for Ussing chambers but using type IV collagen-coated polycarbonate Millicell supports with a diameter of 12 mm and a pore size of […] (Millicell, PIHP01250).
# Corrector and/or potentiator compound(s) were added on the basolateral side of the HBEs for 24 h to rescue F508del CFTR. […] The transepithelial potential (PD) and transepithelial resistance (Rt) were measured in an open circuit and transformed to Ieq using Ohm’s law. […]
# FIGURE 6 Effects of GLPG2737 on normal human bronchial epithelial cells (NHBE) and HEK cells expressing WT CFTR. […] (D) NHBE treated for 24 h with 1 μM GLPG2737 or DMSO (control), CFTR channel was activated with either 0.1 μM or 0.3μM forskolin, measured Isc shown in gray. […]
# T1 sequence (P13569 whole entry): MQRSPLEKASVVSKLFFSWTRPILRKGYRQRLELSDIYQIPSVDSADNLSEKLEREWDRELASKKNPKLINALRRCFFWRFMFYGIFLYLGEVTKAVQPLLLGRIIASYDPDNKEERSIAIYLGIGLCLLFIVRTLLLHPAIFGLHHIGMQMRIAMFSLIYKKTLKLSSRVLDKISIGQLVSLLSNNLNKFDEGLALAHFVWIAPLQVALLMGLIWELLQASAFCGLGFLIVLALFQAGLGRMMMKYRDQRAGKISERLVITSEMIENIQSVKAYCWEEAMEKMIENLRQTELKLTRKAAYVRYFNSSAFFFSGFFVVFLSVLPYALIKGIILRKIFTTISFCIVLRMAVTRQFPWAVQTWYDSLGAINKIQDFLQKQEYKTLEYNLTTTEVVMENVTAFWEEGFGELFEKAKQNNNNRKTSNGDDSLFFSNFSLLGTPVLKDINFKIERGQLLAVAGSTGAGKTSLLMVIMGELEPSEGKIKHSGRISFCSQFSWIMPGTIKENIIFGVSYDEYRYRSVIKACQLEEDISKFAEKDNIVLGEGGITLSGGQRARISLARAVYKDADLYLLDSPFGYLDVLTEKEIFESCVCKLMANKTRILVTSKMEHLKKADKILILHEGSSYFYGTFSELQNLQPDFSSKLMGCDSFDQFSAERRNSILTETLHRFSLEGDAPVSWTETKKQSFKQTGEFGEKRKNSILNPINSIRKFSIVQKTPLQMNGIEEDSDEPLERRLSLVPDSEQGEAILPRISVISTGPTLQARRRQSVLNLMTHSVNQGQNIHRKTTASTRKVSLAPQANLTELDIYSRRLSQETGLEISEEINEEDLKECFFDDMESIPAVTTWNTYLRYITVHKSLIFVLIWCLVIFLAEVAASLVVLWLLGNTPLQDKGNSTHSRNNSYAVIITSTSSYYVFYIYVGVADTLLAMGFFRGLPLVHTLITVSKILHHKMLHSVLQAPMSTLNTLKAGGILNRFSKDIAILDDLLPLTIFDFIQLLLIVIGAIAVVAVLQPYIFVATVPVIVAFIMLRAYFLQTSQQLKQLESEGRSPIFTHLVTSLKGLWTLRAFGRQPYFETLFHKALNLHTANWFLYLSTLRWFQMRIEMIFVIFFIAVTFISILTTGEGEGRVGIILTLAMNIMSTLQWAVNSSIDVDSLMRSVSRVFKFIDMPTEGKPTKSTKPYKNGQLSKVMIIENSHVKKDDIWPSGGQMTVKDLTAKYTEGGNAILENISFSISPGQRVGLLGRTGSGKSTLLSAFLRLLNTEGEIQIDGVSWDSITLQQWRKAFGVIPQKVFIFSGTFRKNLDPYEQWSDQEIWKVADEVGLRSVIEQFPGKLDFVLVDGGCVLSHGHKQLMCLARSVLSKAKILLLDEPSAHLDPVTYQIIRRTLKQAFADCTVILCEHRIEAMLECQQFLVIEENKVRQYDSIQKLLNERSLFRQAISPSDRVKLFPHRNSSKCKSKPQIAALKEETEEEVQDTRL
smiles,measurement,setting,value
COC1CCN(C2CCN(c3cc(C(=O)NS(=O)(=O)N(C)C)nc4c3c(C3CCC3)nn4-c3ccc(F)cc3)CC2)CC1 [GLPG2737],observed exposure in humans,[1],dose linear
same,wild type CFTR activity,"[2]; 24 h incubation with a dose range, 100 nM FSK",dose dependent decrease
same,wild type channel activity,[2]; acute addition together with forskolin (100 nM),decrease
same,CFTR activity,[3],reduced CFTR activity which could be rescued upon addition of a potentiator
